Laboratory results: patent publication US20240400555A1 (Initial Therapeutics, Inc., priority 2023, published 2024)

tested on: MV-4-11 cells; experiment: Cell Viability Assay in MV-4-11 Cells; type: cell-based; settings: Homo sapiens, MV4-11, 72 h
Outline: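 Luminescent ATP read-out (CellTiter-Glo) after 72 h compound treatment of MV-4-11 leukaemia cells (7,000 per well, IMDM plus 10% FBS). Values expressed relative to DMSO control and derived by four-parameter non-linear regression.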

| Structure (SMILES) | IC50 [nM] |
| --- | --- |
| C=C(C)c1csc2c(N(C(=O)c3ccc(-c4cn(C)nn4)cc3F)[C@@H]3CCCNC3)nccc12 [Example 675, 2-fluoro-N-(3-isopropenylthieno[2,3-c]703yridine-7-yl)-4-(1-methyltriazol-4-yl)-N-[(3R)-3-piperidyl]benzamide] | > 1000 |

same assay, conditions: Homo sapiens, MV4-11, 72 h, MV-4-11 cells, 72 h, Cell-Titer Glo; read-out: IC50

| Structure (SMILES) | IC50 [nM] |
| --- | --- |
| Nc1ccc(-c2cc3c(N(C(=O)c4ccc(-n5nnc6cccnc65)cc4F)[C@@H]4CCCNC4)nccc3s2)cn1 [Example 553, N-[2-(6-amino-3-pyridyl)thieno[3,2-c]pyridin-4-yl]-2-fluoro-N-[(3R)-3-piperidyl]-4-(triazolo[4,5-b]pyridin-3-yl)benzamide] | 78 |
| Cc1cccc2ccnc(N(C(=O)c3ccc(Nc4nccc(N5CC[C@H](N(C)C)C5)n4)cc3F)[C@@H]3CCCNC3)c12 [Example 967, 4-({4-[(3S)-3-(dimethylamino)pyrrolidin-1-yl]pyrimidin-2-yl}amino)-2-fluoro-N-(8-methylisoquinolin-1-yl)-N-[(3R)-piperidin-3-yl]benzamide] | 48 |
| O=C(c1ccc(-n2nnc3cccnc32)cc1F)N(c1nccc2sc(-c3ccccc3)cc12)[C@@H]1CCCNC1 [Example 464, 2-fluoro-N-(2-phenylthieno[3,2-c]pyridin-4-yl)-N-[(3R)-3-piperidyl]-4-(triazolo[4,5-b]pyridin-3-yl)benzamide] | 640 |
| CCn1cc(-c2ccc(C(=O)N(c3nccc4scc(C)c34)[C@@H]3CCCNC3)cn2)nn1 [Example 885, 6-(1-ethyltriazol-4-yl)-N-(3-methylthieno[3,2-c]pyridin-4-yl)-N-[(3R)-3-piperidyl]pyridine-3-carboxamide] | 110 |
| CCn1cc(-c2ccc(C(=O)N(c3nccc4cc(Cl)cc(C)c34)[C@@H]3CCCNC3)c(F)c2)nn1 [Example 711, N-(6-chloro-8-methyl-1-isoquinolyl)-4-(1-ethyltriazol-4-yl)-2-fluoro-N-[(3R)-3-piperidyl] benzamide] | 74 |
| Cc1cccc2ccnc(N(C(=O)c3ccc(C#N)c(-c4cccc(-c5cn[nH]c5)c4)c3)[C@@H]3CCCNC3)c12 [Example 329, (R)-6-cyano-N-(8-methylisoquinolin-1-yl)-N-(piperidin-3-yl)-3′-(1H-pyrazol-4-yl)-[1,1′-biphenyl]-3-carboxamide] | 72 |
| Cn1cc(-c2ccc(C(=O)N(c3nccc4cc(/C=C/C(N)=O)ccc34)[C@@H]3CCCNC3)c(F)c2)nn1 [Example 496, (R,E)-N-(6-(3-amino-3-oxoprop-1-en-1-yl)isoquinolin-1-yl)-2-fluoro-4-(1-methyl-1H-1,2,3-triazol-4-yl)-N-(piperidin-3-yl)benzamide] | 5400 |
| Cn1ccc2ccnc(N(C(=O)c3ccc(-n4nnc5cccnc54)cc3F)[C@@H]3CCCNC3)c21 [Example 317, (R)-4-(3H-[1,2,3]triazolo[4,5-b]pyridin-3-yl)-2-fluoro-N-(1-methyl-1H-pyrrolo[2,3-c]pyridin-7-yl)-N-(piperidin-3-yl)benzamide] | 79 |
| Cc1cc(F)cc2ccnc(N(C(=O)c3ccc(-c4cnn5cccnc45)cc3F)[C@@H]3CCCNC3)c12 [Example 627, (R)-2-fluoro-N-(6-fluoro-8-methylisoquinolin-1-yl)-N-(piperidin-3-yl)-4-(pyrazolo[1,5-a]pyrimidin-3-yl)benzamide] | 160 |
| Cc1nnc(-c2ccc(C(=O)N(c3nccc4cc(F)cc(C)c34)[C@@H]3CCCNC3)c(F)c2)o1 [Example 776, (R)-2-fluoro-N-(6-fluoro-8-methylisoquinolin-1-yl)-4-(5-methyl-1,3,4-oxadiazol-2-yl)-N-(piperidin-3-yl)benzamide] | 150 |
| Cc1cccc2ccnc(N(C(=O)c3ccc(Nc4nccc(NCc5cnn(C)c5)n4)cc3F)[C@@H]3CCCNC3)c12 [Example 694, (R)-2-fluoro-4-((4-(((1-methyl-1H-pyrazol-4-yl)methyl)amino)pyrimidin-2-yl)amino)-N-(8-methylisoquinolin-1-yl)-N-(piperidin-3-yl)benzamide] | 46 |
| Cc1cc(Cl)cc2ccnc(N(C(=O)c3ccc(-c4cn(C)nn4)cc3F)[C@H]3CCCNC3)c12 [Example 621, (S)—N-(6-chloro-8-methylisoquinolin-1-yl)-2-fluoro-4-(1-methyl-1H-1,2,3-triazol-4-yl)-N-(piperidin-3-yl)benzamide] | 4100 |
| Cc1cccc2ccnc(N(C(=O)c3ccc(Nc4nccc(NCCO)n4)cc3F)[C@@H]3CCCNC3)c12 [Example 734, (R)-2-fluoro-4-((4-((2-hydroxyethyl)amino)pyrimidin-2-yl)amino)-N-(8-methylisoquinolin-1-yl)-N-(piperidin-3-yl)benzamide] | 81 |
| CCc1nnc(-c2ccc(C(=O)N(c3nccc4scc(C)c34)[C@@H]3CCCNC3)nc2)s1 [Example 670, (R)-5-(5-ethyl-1,3,4-thiadiazol-2-yl)-N-(3-methylthieno[3,2-c]pyridin-4-yl)-N-(piperidin-3-yl)picolinamide] | 170 |
| O=C(c1ccc(-n2nnc3cccnc32)cc1F)N(c1nccc2sc(Cc3cccnc3)cc12)[C@@H]1CCCNC1 [Example 465, 2-fluoro-N-[(3R)-3-piperidyl]-N-[2-(3-pyridylmethyl)thieno[3,2-c]pyridin-4-yl]-4-(triazolo[4,5-b]pyridin-3-yl)benzamide] | 240 |
| CN(C)C(=O)c1ccc(-c2cc3c(N(C(=O)c4ccc(-c5cn(C)nn5)cc4F)[C@@H]4CCCNC4)nccc3s2)cc1 [Example 528, (R)—N-(2-(4-(dimethylcarbamoyl)phenyl)thieno[3,2-c]pyridin-4-yl)-2-fluoro-4-(1-methyl-1H-1,2,3-triazol-4-yl)-N-(piperidin-3-yl)benzamide] | 870 |
| CCn1cc(-c2ccc(C(=O)N(c3nccc4cccc(C)c34)[C@@H]3CCCNC3)c(F)c2)nn1 [Example 821, (R)-4-(1-ethyl-1H-1,2,3-triazol-4-yl)-2-fluoro-N-(8-methylisoquinolin-1-yl)-N-(piperidin-3-yl)benzamide] | 67 |
| Cc1nnc(-c2ccc(C(=O)N(c3nccc4cc(F)cc(C)c34)[C@@H]3CCCNC3)c(F)c2)s1 [Example 833, (R)-2-fluoro-N-(6-fluoro-8-methylisoquinolin-1-yl)-4-(5-methyl-1,3,4-thiadiazol-2-yl)-N-(piperidin-3-yl)benzamide] | 120 |
| COCc1cn(-c2ccc(C(=O)N(c3nccc4cc(Cl)cc(C)c34)[C@@H]3CCCNC3)cn2)nn1 [Example 631, (R)—N-(6-chloro-8-methylisoquinolin-1-yl)-6-(4-(methoxymethyl)-1H-1,2,3-triazol-1-yl)-N-(piperidin-3-yl)nicotinamide] | 100 |
| Cc1cccc2ccnc(N(C(=O)c3ccc(-c4nnc5n4CCCC5)cc3F)[C@@H]3CCCNC3)c12 [Example 432, (R)-2-fluoro-N-(8-methylisoquinolin-1-yl)-N-(piperidin-3-yl)-4-(5,6,7,8-tetrahydro-[1,2,4]triazolo[4,3-a]pyridin-3-yl)benzamide] | 400 |
| C=Cc1csc2ccnc(N(C(=O)c3ccc(-c4nnc(C)s4)cc3F)[C@@H]3CCCNC3)c12 [Example 886, 2-fluoro-4-(5-methyl-1,3,4-thiadiazol-2-yl)-N-[(3R)-3-piperidyl]-N-(3-vinylthieno[3,2-c]pyridin-4-yl)benzamide] | 180 |
| Cn1cc(-c2ccc(C(=O)N(c3nccc4sc(-c5ccsc5)cc34)[C@@H]3CCCNC3)c(F)c2)nn1 [Example 511, 2-fluoro-4-(1-methyltriazol-4-yl)-N-[(3R)-3-piperidyl]-N-[2-(3-thienyl)thieno[3,2-c]pyridin-4-yl]benzamide] | 250 |
| Cc1cccc2ccnc(N(C(=O)c3ccc(Nc4nccc(N5CCC(=O)CC5)n4)cc3F)[C@@H]3CCCNC3)c12 [Example 719, (R)-2-fluoro-N-(8-methylisoquinolin-1-yl)-4-((4-(4-oxopiperidin-1-yl)pyrimidin-2-yl)amino)-N-(piperidin-3-yl)benzamide] | 14 |
| COCCn1cc(-c2ccc(C(=O)N(c3nccc4cc(Cl)cc(C)c34)[C@@H]3CCCNC3)cn2)nn1 [Example 921, N-(6-chloro-8-methyl-1-isoquinolyl)-6-[1-(2-methoxyethyl)triazol-4-yl]-N-[(3R)-3-piperidyl]pyridine-3-carboxamide] | 52 |
| Cn1cc(-c2ccc(C(=O)N(c3nccc4sc(-c5ccc(C(O)(C(F)(F)F)C(F)(F)F)cc5)cc34)[C@@H]3CCCNC3)c(F)c2)nn1 [Example 604, (R)-2-fluoro-N-(2-(4-(1,1,1,3,3,3-hexafluoro-2-hydroxypropan-2-yl)phenyl)thieno[3,2-c]pyridin-4-yl)-4-(1-methyl-1H-1,2,3-triazol-4-yl)-N-(piperidin-3-yl)benzamide] | 2100 |
| Cc1noc(-c2ccc(C(=O)N(c3nccc4cc(F)cc(C)c34)[C@@H]3CCCNC3)cc2)n1 [Example 775, (R)—N-(6-fluoro-8-methylisoquinolin-1-yl)-4-(3-methyl-1,2,4-oxadiazol-5-yl)-N-(piperidin-3-yl)benzamide] | 99 |
| Cc1nnc(-c2ccc(C(=O)N(c3nccc4cc(Cl)ccc34)[C@@H]3CCCNC3)c(F)c2)o1 [Example 788, (R)—N-(6-chloroisoquinolin-1-yl)-2-fluoro-4-(5-methyl-1,3,4-oxadiazol-2-yl)-N-(piperidin-3-yl)benzamide] | 970 |
| Cc1cccc2ccnc(N(C(=O)c3ccc(-c4nnn(C)c4C)cc3F)[C@@H]3CCCNC3)c12 [Example 830, (R)-4-(1,5-dimethyl-1H-1,2,3-triazol-4-yl)-2-fluoro-N-(8-methylisoquinolin-1-yl)-N-(piperidin-3-yl)benzamide] | 210 |

same assay, conditions: MV-4-11 cells, 72 h, Cell-Titer Glo; read-out: IC50

| Structure (SMILES) | IC50 [nM] |
| --- | --- |
| Cn1cc(-c2ccc(C(=O)N(c3nccc4cc(-c5ccccc5)ccc34)[C@@H]3CCCNC3)c(F)c2)nn1 [Example 579, (R)-2-fluoro-4-(1-methyl-1H-1,2,3-triazol-4-yl)-N-(6-phenylisoquinolin-1-yl)-N-(piperidin-3-yl)benzamide] | 220 |
